In US20220184034A1, “METHODS FOR TREATING CUTANEOUS METASTATIC CANCERS” (Adgero Biopharmaceuticals Holdings, Inc., priority 2020, published 2022):

Columns and labels:
Type in all cases: in vivo, patients
[1] = test system: cutaneous lesions arising from either basal cell cancer, squamous cell cancer or CMBC; assay: Phase 1/2 dose escalation study of SnET2 PDT: acute lesion reaction grade at Week 1; settings: Week 1 post-treatment
Procedure: Two Phase 1/2 studies established the clinical dosimetry. The first study was a dose escalation study that enrolled a total of 22 patients with cutaneous lesions arising from either basal cell cancer, squamous cell cancer or CMBC. A total of 213 lesions were treated using photosensitizer SnET2) doses ranging from 0.1-1.2 mg/kg, light doses of 100, 150 or 200 J/cm^2 and treatment timepoints of 24, 48, or 72 hours post-infusion. Two key measures were utilized in these studies, lesion reaction and lesion response. Lesion reaction was an acute characterization of the treatment effect that was performed out to 1 week post-treatment according to the following scale: • Grade 0=No visual erythema or edema • Grade 1=Faint erythema and/or slight edema • Grade 2=Moderate erythema and edema • Grade 3=Severe discoloration, edema, sloughing or eschar
A further analysis was undertaken to explore the relationship between the acute lesion reaction and the lesion response. […] Following are the results from patients who were scored for lesion reaction at Week 1 post-treatment and who received a drug dose of 0.8 mg/kg or higher. […] For the 0.8 mg/kg cases, only 5 of the 37 lesions (14%) received the highest lesion reaction score. In the case of the 1.2 mg/kg dose group, the percentage of lesions with the maximum lesion reaction score, 13 of 22 (59%), was substantially higher.

CMBC lesions [2] = assay: Four phase 2/3 studies of SnET2 PDT: lesion treatment response; settings: 1.2 mg/kg; for Responders / Response Rate of Evaluable Lesions: 200 J/cm^2, ~24 h, lesions larger than 1 cm; for lesion response rate: 200 J/cm^2
Procedure: (§1) A factor that impacts clinical outcome is the time delay required for post-treatment effects to resolve. This factor is observed in the results from four subsequent phase 2/3 studies of CMBC lesions using a fixed drug dose of 1.2 mg/kg and a fixed light dose of 200 J/cm^2 administered at approximately 24 hours post-infusion. In these studies lesions were first scored for lesion reaction and then scored for lesion treatment response after the lesion reaction had resolved. In the case of lesion reaction scoring, the reaction was first assessed by the investigator at approximately 4-week intervals and assigned a Reaction Score according to the following defined terms: • 0=No erythema, edema or residual eschar • 1=Mild (faint) erythema and/or slight edema present • 2=Moderate erythema and edema present • 3=Severe erythema and edema present • 4=Sloughing, ulceration, and/or eschar present • 5=Eschar requiring debridement
(§2) Once a lesion scored a Reaction Score of 0 or 1 it was deemed suitably healed for evaluation, at which time its treatment response was quantified by visual measurement of the two longest dimensions. In those cases where the patient left the study before a reaction score of 0-1 was reached, those lesions were classified as not evaluable.
(§3) An analysis conducted of the median time to lesion evaluation (time to reach a reaction score of 0 or 1) in these same four phase 2/3 CMBC trials indicates the time delay for post-treatment effects to resolve was closely associated with the acute (week 1-2 post-treatment) lesion reaction score, with higher acute reaction scores being associated with a longer time to lesion evaluation, consistent with a more severe treatment reaction requiring a longer time to resolve. […] Because larger lesions are most likely to be clinically relevant, this table only includes those lesions from the same four CMBC phase 2/3 trials that had baseline dimensions larger than 1 cm.

CMBC lesions [3] = assay: Four phase 2/3 studies of SnET2 PDT: lesion reaction score and time to lesion evaluation; settings: 1.2 mg/kg; for Median Evaluable Week / Total with Max Reaction During Trial ≥4: 200 J/cm^2, ~24 h, lesions larger than 1 cm; for median time to evaluation: 200 J/cm^2
Procedure: Subsequent studies were conducted with dose parameters of 1.2 mg/kg of photosensitizer, 200 J/cm^2 of light, and 24 hours post administration as a treatment timepoint.
as §1, §2, §3

[4] = acute lesion reaction score 0-1
[5] = acute lesion reaction score 2-3
[6] = acute lesion reaction score 4-5

- % with Max Rx Score at Week 1 ([1]; 0.8 mg/kg, 100 J/cm^2): 0%
- Total with Max Rx Score at Week 1 ([1]; 0.8 mg/kg, 100 J/cm^2): 0
- % with Max Rx Score at Week 1 ([1]; 0.8 mg/kg, 150 J/cm^2): 7%
- Total with Max Rx Score at Week 1 ([1]; 0.8 mg/kg, 150 J/cm^2): 1
- % with Max Rx Score at Week 1 ([1]; 0.8 mg/kg, 200 J/cm^2): 27%
- Total with Max Rx Score at Week 1 ([1]; 0.8 mg/kg, 200 J/cm^2): 4
- lesions with the highest lesion reaction score ([1]; 0.8 mg/kg): 5 of the 37
- percentage of lesions with the highest lesion reaction score ([1]; 0.8 mg/kg): 14%
- % with Max Rx Score at Week 1 ([1]; 1.0 mg/kg, 100 J/cm^2): 0%
- Total with Max Rx Score at Week 1 ([1]; 1.0 mg/kg, 100 J/cm^2): 0
- % with Max Rx Score at Week 1 ([1]; 1.0 mg/kg, 150 J/cm^2): 0%
- Total with Max Rx Score at Week 1 ([1]; 1.0 mg/kg, 150 J/cm^2): 0
- % with Max Rx Score at Week 1 ([1]; 1.0 mg/kg, 200 J/cm^2): 0%
- Total with Max Rx Score at Week 1 ([1]; 1.0 mg/kg, 200 J/cm^2): 0
- % with Max Rx Score at Week 1 ([1]; 1.2 mg/kg, 100 J/cm^2): 33%
- Total with Max Rx Score at Week 1 ([1]; 1.2 mg/kg, 100 J/cm^2): 2
- % with Max Rx Score at Week 1 ([1]; 1.2 mg/kg, 150 J/cm^2): 78%
- Total with Max Rx Score at Week 1 ([1]; 1.2 mg/kg, 150 J/cm^2): 7
- % with Max Rx Score at Week 1 ([1]; 1.2 mg/kg, 200 J/cm^2): 57%
- Total with Max Rx Score at Week 1 ([1]; 1.2 mg/kg, 200 J/cm^2): 4
- lesions with the maximum lesion reaction score ([1]; 1.2 mg/kg): 13 of 22
- percentage of lesions with the maximum lesion reaction score ([1]; 1.2 mg/kg): 59%
- Median Evaluable Week (CMBC lesions [3]; [4]): 1 Week
- Total with Max Reaction During Trial ≥4 (CMBC lesions [3]; [4]): 14
- Median Evaluable Week (CMBC lesions [3]; [5]): 6 Week
- Total with Max Reaction During Trial ≥4 (CMBC lesions [3]; [5]): 165
- Median Evaluable Week (CMBC lesions [3]; [6]): 12 Week
- Total with Max Reaction During Trial ≥4 (CMBC lesions [3]; [6]): 496
- median time to evaluation (CMBC lesions [3]; acute lesion reactions of 2-3): 6 weeks
Substance: tin ethyl etiopurpurin [SnET2]
- Responders (CMBC lesions [2]; [4]): 48
- Response Rate of Evaluable Lesions (CMBC lesions [2]; [4]): 63%
- Responders (CMBC lesions [2]; [5]): 168
- Response Rate of Evaluable Lesions (CMBC lesions [2]; [5]): 81%
- Responders (CMBC lesions [2]; [6]): 179
- Response Rate of Evaluable Lesions (CMBC lesions [2]; [6]): 88%
- lesion response rate (CMBC lesions [2]; acute lesion reactions of 2-3): 81%
- lesion response rate (CMBC lesions [2]; acute reactions of 4-5): 88%
- healing following treatment (CMBC lesions [3]; 200 J/cm^2, 24 hours post administration): slow healing following treatment was observed
- median time to evaluation (CMBC lesions [3]; acute reactions of 4-5 (eschar or ulceration)): 12 weeks
